In PubChem BioAssay (NCI):
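Interpolation was linear, between the two tested concentrations surrounding the appropriate level; five concentrations were tested over 48 hours in 96-well plates. GI50: concentration for 50% inhibition of growth. TGI: total growth inhibition.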

Key:
Test in all cases: NCI tumour cell line growth inhibition, 48 h
[1] = test system: HCC-2998 colon
[2] = test system: IGROV1 ovarian
[3] = test system: COLO 205 colon
[4] = test system: HCT-116 colon
[5] = test system: CCRF-CEM leukemia
[6] = test system: SK-MEL-5 melanoma
[7] = test system: XF 498 CNS
[8] = test system: SK-MEL-28 melanoma
[9] = test system: SF-268 CNS
[10] = test system: OVCAR-8 ovarian
[11] = test system: HL-60(TB) leukemia
[12] = test system: MOLT-4 leukemia
[13] = test system: SF-295 CNS
[14] = test system: K-562 leukemia
[15] = test system: DMS 273 small cell lung
[16] = test system: DLD-1 colon
[17] = test system: SNB-78 CNS
[18] = test system: SK-OV-3 ovarian
[19] = test system: CAKI-1 renal
[20] = test system: HOP-18 NSCLC
[21] = test system: HT29 colon
[22] = test system: SK-MEL-2 melanoma
[23] = test system: A549 NSCLC
[24] = test system: NCI/ADR-RES ovarian
[25] = test system: SNB-19 CNS
[26] = test system: SN12K1 renal
[27] = test system: UACC-257 melanoma
[28] = test system: MALME-3M melanoma
[29] = test system: EKVX NSCLC
[30] = test system: P388 leukemia
[31] = test system: NCI-H460 lung
[32] = test system: UACC-62 melanoma
[33] = test system: SW-620 colon
[34] = test system: KM12 colon
[35] = test system: A498 renal
[36] = test system: RXF 393 renal
[37] = test system: OVCAR-5 ovarian
[38] = test system: RPMI-8226 leukemia
[39] = test system: NCI-H226 lung
[40] = test system: SNB-75 CNS
[41] = test system: UO-31 renal
[42] = test system: MCF7 breast
[43] = test system: HCT-15 colon
[44] = test system: HOP-92 NSCLC
[45] = test system: HOP-62 NSCLC
[46] = test system: SF-539 CNS
[47] = test system: U251 CNS
[48] = test system: SN12C renal
[49] = test system: KM20L2 colon
[50] = test system: NCI-H23 lung
[51] = test system: OVCAR-3 ovarian
[52] = test system: OVCAR-4 ovarian
[53] = test system: P388/ADR leukemia
[54] = test system: LOX IMVI melanoma
[55] = test system: NCI-H522 lung

Question: What does the source list for `NC1CCCCC1N.Nc1c(N=Nc2ccc(-c3ccc(N=Nc4cc(S(=O)(=O)[O-])c5ccccc5c4N)cc3)cc2)cc(S(=O)(=O)[O-])c2ccccc12.[OH3+].[OH3+].[Pt+4]`?
Answer: GI50 [1]: > 90.9 µM; TGI [1]: > 100 µM; GI50 [2]: 48.5 µM; TGI [2]: > 100 µM; GI50 [3]: 17.1 µM; TGI [3]: 32.9 µM; GI50 [4]: > 96.1 µM; TGI [4]: > 100 µM; GI50 [5]: 29.2 µM; TGI [5]: > 79.3 µM; GI50 [6]: 33 µM; TGI [6]: > 83.9 µM; GI50 [7]: 20.4 µM; TGI [7]: 42 µM; GI50 [8]: 22 µM; TGI [8]: 42.2 µM; GI50 [9]: > 78.6 µM; TGI [9]: > 100 µM; GI50 [10]: 26.8 µM; TGI [10]: > 68.1 µM; GI50 [11]: 21.2 µM; TGI [11]: 50.9 µM; GI50 [12]: 21.1 µM; TGI [12]: 54.6 µM; GI50 [13]: > 100 µM; TGI [13]: > 100 µM; GI50 [14]: 25 µM; TGI [14]: 64.2 µM; GI50 [15]: 59.2 µM; TGI [15]: > 100 µM; GI50 [16]: 21.1 µM; TGI [16]: 43.5 µM; GI50 [17]: > 76.5 µM; TGI [17]: > 100 µM; GI50 [18]: > 100 µM; TGI [18]: > 100 µM; GI50 [19]: > 39.9 µM; TGI [19]: > 56.9 µM; GI50 [20]: 24.5 µM; TGI [20]: 53.3 µM; GI50 [21]: 20.1 µM; TGI [21]: 38.8 µM; GI50 [22]: 45.6 µM; TGI [22]: > 100 µM; GI50 [23]: > 76.5 µM; TGI [23]: > 100 µM; GI50 [24]: 20.9 µM; TGI [24]: 43 µM; GI50 [25]: > 100 µM; TGI [25]: > 100 µM; GI50 [26]: 27.3 µM; TGI [26]: > 58.2 µM; GI50 [27]: 18.1 µM; TGI [27]: 34.7 µM; GI50 [28]: 15.4 µM; TGI [28]: 22.2 µM; GI50 [29]: 33.8 µM; TGI [29]: 81.7 µM; GI50 [30]: 26.3 µM; TGI [30]: 90.5 µM; GI50 [31]: 40 µM; TGI [31]: > 100 µM; GI50 [32]: 61.4 µM; TGI [32]: > 100 µM; GI50 [33]: 25.2 µM; TGI [33]: 49.4 µM; GI50 [34]: > 60.5 µM; TGI [34]: > 100 µM; GI50 [35]: > 100 µM; TGI [35]: > 100 µM; GI50 [36]: 20.3 µM; TGI [36]: 68.5 µM; GI50 [37]: > 100 µM; TGI [37]: > 100 µM; GI50 [38]: 25.2 µM; TGI [38]: 66.3 µM; GI50 [39]: > 52.6 µM; TGI [39]: > 100 µM; GI50 [40]: > 77.2 µM; TGI [40]: > 100 µM; GI50 [41]: > 100 µM; TGI [41]: > 100 µM; GI50 [42]: 30.9 µM; TGI [42]: > 100 µM; GI50 [43]: > 43.3 µM; TGI [43]: > 59.6 µM; GI50 [44]: 14.2 µM; TGI [44]: 19.9 µM; GI50 [45]: > 100 µM; TGI [45]: > 100 µM; GI50 [46]: > 100 µM; TGI [46]: > 100 µM; GI50 [47]: > 100 µM; TGI [47]: > 100 µM; GI50 [48]: > 56.9 µM; TGI [48]: > 100 µM; GI50 [49]: > 100 µM; TGI [49]: > 100 µM; GI50 [50]: 67.9 µM; TGI [50]: > 100 µM; GI50 [51]: 42.8 µM; TGI [51]: > 60.1 µM; GI50 [52]: 35.3 µM; TGI [52]: > 93 µM; GI50 [53]: 22.6 µM; TGI [53]: > 62 µM; GI50 [54]: > 52.2 µM; TGI [54]: > 80.7 µM; GI50 [55]: 19.6 µM; TGI [55]: 37.9 µM
